Patent publication US20020106342A1, “Methods for treating atopic disorders” (priority 2000, published 2002)

System: skin fungal conditions
Assay: Patients with skin fungal conditions treated with griseovulvin and an appropriate antibiotic, emollients ceased (Example 6)
Format: in vivo, human
Description: Most patients received an antihistamine for the first ten days to control itch. The patients ceased the use of lotions and other emollients, as well as the use of local and systemic corticosteroids.

COC1=CC(=O)C[C@@H](C)[C@]12Oc1c(Cl)c(OC)cc(OC)c1C2=O [griseovulvin]
Appearance of "dry skin" (Patient A, after 35 days of treatment): cleared up considerably
Fungus on skin (Patient B, one week later): improved dramatically
Fungus on skin (Patient C, after treatment): significantly improved
Fungus growth on back of neck (Patient D, after seven weeks): significantly diminished
Fungal condition of skin (Patient F, after seven weeks of treatment): improving and peeling off
Fungal infection tinea barbae (Patient G, after seven weeks): significantly cleared
Skin with hair follicles infected by fungus (Patient H, after nine weeks of treatment): dramatically improved
